From ChEMBL document CHEMBL5634143, “Development of teixobactin analogues containing hydrophobic, non-proteogenic amino acids that are highly potent against multidrug-resistant bacteria and biofilms” (Eur J Med Chem, 2023)
Converted amounts (≈) assume the structure as drawn.

How the values were obtained:
Format in all cases: functional
[1] = tested on: Staphylococcus saprophyticus; experiment: Antibacterial activity against Staphylococcus saprophyticus ATCC BAA 750 assessed as inhibition of bacterial growth
[2] = tested on: Staphylococcus saprophyticus; experiment: Antibacterial activity against Staphylococcus saprophyticus ATCC 15305 assessed as inhibition of bacterial growth
[3] = tested on: Staphylococcus saprophyticus; experiment: Antibacterial activity against Staphylococcus saprophyticus ATCC 49453 assessed as inhibition of bacterial growth
[4] = tested on: Staphylococcus saprophyticus; experiment: Antibacterial activity against Staphylococcus saprophyticus ATCC 49907 assessed as inhibition of bacterial growth
Enterococcus faecium [5] = experiment: Antibacterial activity against Vancomycin-resistant Enterococcus faecium 1014 assessed as inhibition of bacterial growth
Enterococcus faecium [6] = experiment: Antibacterial activity against Vancomycin-resistant Enterococcus […] ATCC 700802 assessed as inhibition of bacterial growth
Enterococcus faecium [7] = experiment: Antibacterial activity against Vancomycin-resistant Enterococcus […] ATCC 29212 assessed as inhibition of bacterial growth; settings: Enterococcus faecalis
Staphylococcus aureus [8] = experiment: Antibacterial activity against methicilin-resistant Staphylococcus aureus ATCC 700699 assessed as inhibition of bacterial growth
Staphylococcus aureus [9] = experiment: Antibacterial activity against methicilin-resistant Staphylococcus aureus 42412 assessed as inhibition of bacterial growth
Staphylococcus aureus [10] = experiment: Antibacterial activity against methicilin-resistant Staphylococcus aureus 21455 assessed as inhibition of bacterial growth
Staphylococcus aureus [11] = experiment: Antibacterial activity against methicilin-resistant Staphylococcus aureus 1003 assessed as inhibition of bacterial growth
Staphylococcus aureus [12] = experiment: Antibacterial activity against Staphylococcus aureus 29213 assessed as inhibition of bacterial growth
Staphylococcus aureus [13] = experiment: Antibacterial activity against Staphylococcus aureus 4299 assessed as inhibition of bacterial growth
[14] = tested on: Staphylococcus epidermidis; experiment: Antibacterial activity against Staphylococcus epidermidis 12228 assessed as inhibition of bacterial growth
Bacillus cereus = experiment: Antibacterial activity against Bacillus cereus ATCC 11788 assessed as inhibition of bacterial growth
Bacillus subtilis = experiment: Antibacterial activity against Bacillus subtilis ATCC 6633 assessed as inhibition of bacterial growth

Compound	MIC [1] [µg/mL]	MIC [2] [µg/mL]	MIC [3] [µg/mL]	MIC [4] [µg/mL]	MIC (Enterococcus faecium [5]) [µg/mL]	MIC (Enterococcus faecium [6]) [µg/mL]	MIC (Enterococcus faecium [7]) [µg/mL]	MIC (Staphylococcus aureus [8]) [µg/mL]	MIC (Staphylococcus aureus [9]) [µg/mL]	MIC (Staphylococcus aureus [10]) [µg/mL]	MIC (Staphylococcus aureus [11]) [µg/mL]	MIC (Staphylococcus aureus [12]) [µg/mL]	MIC (Staphylococcus aureus [13]) [µg/mL]	MIC [14] [µg/mL]	MIC (Bacillus cereus) [µg/mL]	MIC (Bacillus subtilis) [µg/mL]
CCC[C@@H]1NC(=O)[C@H](CCCNC(=N)N)NC(=O)[C@H](NC(=O)[C@H](CO)NC(=O)[C@@H](NC(=O)[C@H](NC(=O)[C@@H](CCCNC(=N)N)NC(=O)[C@H](CO)NC(=O)[C@@H](NC(=O)[C@@H](Cc2ccccc2)NC)[C@@H](C)CC)[C@@H](C)CC)[C@@H](C)CC)[C@H](C)OC(=O)[C@H]([C@@H](C)CC)NC1=O	0.063 (≈ 0.0484 µM)	0.063 (≈ 0.0484 µM)	0.063 (≈ 0.0484 µM)	0.063 (≈ 0.0484 µM)	2 (≈ 1.54 µM)	1 (≈ 0.769 µM)	2 (≈ 1.54 µM)	0.5 (≈ 0.384 µM)	0.125 (≈ 0.0961 µM)	0.5 (≈ 0.384 µM)	1 (≈ 0.769 µM)	0.25 (≈ 0.192 µM)	0.063 (≈ 0.0484 µM)	0.063 (≈ 0.0484 µM)	1 (≈ 0.769 µM)	0.5 (≈ 0.384 µM)
CCC[C@@H]1NC(=O)[C@H](CCCNC(=N)N)NC(=O)[C@H](NC(=O)[C@H](CO)NC(=O)[C@@H](NC(=O)[C@H](NC(=O)[C@@H](CCC(N)=O)NC(=O)[C@H](CCCNC(=N)N)NC(=O)[C@@H](NC(=O)[C@@H](Cc2ccccc2)NC)[C@@H](C)CC)[C@@H](C)CC)[C@@H](C)CC)[C@H](C)OC(=O)[C@H]([C@@H](C)CC)NC1=O	0.063 (≈ 0.047 µM)	0.125 (≈ 0.0932 µM)	0.063 (≈ 0.047 µM)	0.063 (≈ 0.047 µM)	2 (≈ 1.49 µM)	2 (≈ 1.49 µM)	2 (≈ 1.49 µM)	0.25 (≈ 0.186 µM)	0.125 (≈ 0.0932 µM)	0.5 (≈ 0.373 µM)	1 (≈ 0.745 µM)	0.5 (≈ 0.373 µM)	0.25 (≈ 0.186 µM)	0.063 (≈ 0.047 µM)	1 (≈ 0.745 µM)	0.063 (≈ 0.047 µM)
CCC[C@@H]1NC(=O)[C@H](C)NC(=O)[C@H](NC(=O)[C@H](CO)NC(=O)[C@@H](NC(=O)[C@H](NC(=O)[C@@H](CCC(N)=O)NC(=O)[C@H](CO)NC(=O)[C@@H](NC(=O)[C@@H](Cc2ccccc2)NC)[C@@H](C)CC)[C@@H](C)CC)[C@@H](C)CC)[C@H](C)OC(=O)[C@H]([C@@H](C)CC)NC1=O	0.063 (≈ 0.0531 µM)	0.063 (≈ 0.0531 µM)	0.063 (≈ 0.0531 µM)	0.063 (≈ 0.0531 µM)	1 (≈ 0.842 µM)	1 (≈ 0.842 µM)	1 (≈ 0.842 µM)	0.5 (≈ 0.421 µM)	0.063 (≈ 0.0531 µM)	0.125 (≈ 0.105 µM)	0.25 (≈ 0.211 µM)	0.125 (≈ 0.105 µM)	0.063 (≈ 0.0531 µM)	0.125 (≈ 0.105 µM)	0.063 (≈ 0.0531 µM)	0.063 (≈ 0.0531 µM)
CCC[C@@H]1NC(=O)[C@H](C)NC(=O)[C@H](NC(=O)[C@H](CO)NC(=O)[C@@H](NC(=O)[C@H](NC(=O)[C@@H](CCCNC(=N)N)NC(=O)[C@H](CO)NC(=O)[C@@H](NC(=O)[C@@H](Cc2ccccc2)NC)[C@@H](C)CC)[C@@H](C)CC)[C@@H](C)CC)[C@H](C)OC(=O)[C@H]([C@@H](C)CC)NC1=O	0.063 (≈ 0.0518 µM)	0.063 (≈ 0.0518 µM)	0.063 (≈ 0.0518 µM)	0.063 (≈ 0.0518 µM)	1 (≈ 0.823 µM)	0.5 (≈ 0.411 µM)	1 (≈ 0.823 µM)	0.063 (≈ 0.0518 µM)	0.063 (≈ 0.0518 µM)	0.125 (≈ 0.103 µM)	0.125 (≈ 0.103 µM)	0.125 (≈ 0.103 µM)	0.063 (≈ 0.0518 µM)	0.063 (≈ 0.0518 µM)	0.5 (≈ 0.411 µM)	0.063 (≈ 0.0518 µM)
CC[C@H](C)[C@H](NC(=O)[C@@H](Cc1ccccc1)NC)C(=O)N[C@@H](CCCNC(=N)N)C(=O)N[C@H](CCC(N)=O)C(=O)N[C@@H](C(=O)N[C@H](C(=O)N[C@@H](CO)C(=O)N[C@H]1C(=O)N[C@@H](CCCNC(=N)N)C(=O)N[C@@H](C2CCCCC2)C(=O)N[C@@H]([C@@H](C)CC)C(=O)O[C@H]1C)[C@@H](C)CC)[C@@H](C)CC	< 0.063	< 0.063	0.063 (≈ 0.0456 µM)	0.063 (≈ 0.0456 µM)	1 (≈ 0.724 µM)	1 (≈ 0.724 µM)	1 (≈ 0.724 µM)	0.5 (≈ 0.362 µM)	0.063 (≈ 0.0456 µM)	0.5 (≈ 0.362 µM)	0.5 (≈ 0.362 µM)	0.25 (≈ 0.181 µM)	0.063 (≈ 0.0456 µM)	0.063 (≈ 0.0456 µM)	1 (≈ 0.724 µM)	0.063 (≈ 0.0456 µM)
CCC[C@@H]1NC(=O)[C@H](C)NC(=O)[C@H](NC(=O)[C@H](CO)NC(=O)[C@@H](NC(=O)[C@H](NC(=O)[C@@H](CCC(N)=O)NC(=O)[C@H](CCCNC(=N)N)NC(=O)[C@@H](NC(=O)[C@@H](Cc2ccccc2)NC)[C@@H](C)CC)[C@@H](C)CC)[C@@H](C)CC)[C@H](C)OC(=O)[C@H]([C@@H](C)CC)NC1=O	0.063 (≈ 0.0501 µM)	0.063 (≈ 0.0501 µM)	0.063 (≈ 0.0501 µM)	0.063 (≈ 0.0501 µM)	1 (≈ 0.796 µM)	1 (≈ 0.796 µM)	2 (≈ 1.59 µM)	0.25 (≈ 0.199 µM)	0.063 (≈ 0.0501 µM)	0.063 (≈ 0.0501 µM)	0.125 (≈ 0.0995 µM)	0.125 (≈ 0.0995 µM)	0.063 (≈ 0.0501 µM)	0.063 (≈ 0.0501 µM)	0.063 (≈ 0.0501 µM)	0.063 (≈ 0.0501 µM)
